Measurements published in US20060057101A1, “German cockroach attractant” (priority 2004, published 2006).

Columns and labels:
male German cockroaches = test: two-choice olfactometer behavioral assay; assay type: in vivo, Blattella germanica
Protocol: FIG. 3 is a graphic representation of behavioral responses of male German cockroaches to one female equivalent of a crude extract of many virgin females and to various doses of the synthetic pheromone, gentisyl quinone isovalerate. The pheromone was applied in 20 μl of methylene chloride to a filter paper disc and presented to single males acclimated in the two-choice olfactometer vs. a methylene chloride control filter paper. Behavioral response is defined as quiescent males that were activated and ran out of their cage. Each assay consisted of testing 10-16 males in individual olfactometers and the assays were replicated 3-18 times. The mean responses and SEM are indicated.
FIG. 4 is a graphic representation of behavioral responses of male German cockroaches to one female equivalent of a crude extract of many virgin females and to various doses of the synthetic pheromone, gentisyl quinone isovalerate. Procedures are as in FIG. 3, but reported is the latency in seconds before males left their cages.
The biological activity of extracts and fractions was assayed both behaviorally and with an electroantennogram (“EAG”). Schal et al., “Site of Pheromone Production in Female Supella longipalpa (F.) (Dictyoptera: Blattellidae): Behavioral, Electrophysiological, and Morphological Evidence,” Annals Entomol. Soc. Amer. 85:605-611 (1992), which is hereby incorporated by reference in its entirety. For behavioral assays a two-choice olfactometer was used. Liang et al., “Effects of Pheromone Concentration and Photoperiod on the Behavioral Response Sequence to Sex Pheromone in the Male Brown-Banded Cockroach, Supella longipalpa,” J. Insect Behavior 3:211-223 (1990), and Liang et al., “Volatile Sex Pheromone in the Female German Cockroach,” Experientia 49:324-328 (1993a), which are hereby incorporated by reference in their entirety. Briefly, a straight Plexiglas tube (55 cm long and 3 cm ID) was divided along 15 cm of its upwind end and air was drawn through it at 20 cm/min. […] The percentage of insects running upwind and the latency, in seconds, before they responded were recorded.

[1] = system: brownbanded cockroach males; settings: cited from earlier work

Compound: CC(C)CC(=O)OCC1=CC(=O)C=CC1=O [synthetic pheromone, gentisyl quinone isovalerate]
- males responding (quiescent males activated and running out of their cage) (male German cockroaches; 10-100 ng of the pheromone on filter paper, FIG. 3): More than 60%
- latency of the male response before leaving cage (male German cockroaches; doses between 10 ng and 1 μg, FIG. 4): shortest latency
- dose-response of male behavioral response (male German cockroaches; various doses on filter paper, FIG. 3): clear dose-response

Compound: supellapyrone
- increase in number of adult males trapped relative to respective controls ([1]; all treatments, field traps): 6-28 times
- attractiveness to males in the field ([1]; field, jar traps): highly attractive
